Assay results taken from patent publication US6979747B2, “Antioxidants, preparation processes and their uses” (Centre National de la Recherche Scientifique (CNRS), priority 1999, dated 2005).

What was measured:
TNF-α = assay: Synthesis of TNF-α in MDMs stimulated with LPS and IFN-γ; format: cell-based, human; details: MDMs stimulated with LPS (1 μg/ml) and IFN-γ (100 IU/ml)
Experimental: The synthesis of tumor necrosis factor (TNF-α) was […] in the MDM culture supernatants using the calorimetric kit sold by Cayman.
(§1) The compound I-152 and its derivatives are prepared extemporaneously by being dissolved in dimethyl sulfoxide (DMSO) at the concentration of 100 mM. They are subsequently stored at −20° C. after having been diluted 10 fold in phosphate buffer (PBS).
Tumor necrosis factor (TNF-α), like the oxygen-comprising or nitrogen-comprising radical components, plays a major role in the apoptotic processes associated with infection the HIV. Furthermore, the radical components can promote the synthesis of this proinflammatory cytokine. For this reason, the effects of I-152 in decreasing the synthesis of TNF-α were thus looked for in MDMs stimulated by a bacterial lipopolysaccharide and interferon (IFN-γ).

MDMs = assay: Cytotoxicity with respect to MDMs (neutral red); format: cell-based, human; details: MDMs
Experimental: These tests are carried out systematically in parallel with the evaluation of the antiviral activity. In view of the oxidation/reduction capacity of the molecules tested, the test with the tetrazolium salt, which measures the activity of mitochondrial dehydrogenases, cannot be used.
Neutral red (NR) is a vital dye which makes it possible to measure the viability of adherent cells, such as MDMs. 600 μl of culture supernatant are removed and replaced with 400 μl of an NR solution (0.001% m/v in phosphate buffer, PBS, Boehringer Mannheim), filtered at 0.45 μm. The cells were incubated for 1 h at 37° C. and are subsequently washed (2×1 ml of PBS). The cells are then lysed at −20° C. with 200 μl of a 50% ethanol mixture comprising 1% of glacial acetic acid. The OD is measured twice with 100 μl of solution using a spectrophotometer.

GSH = assay: Intracellular concentration of GSH in spleen macrophages; format: cell-based, human
Experimental: (§2) The spleen is dissected and sieved and then the mononuclear cells are isolated using a density gradient, on a Ficoll cushion. The monocytes/macrophages are obtained by adherence to the plastic. The monocytes were allowed to differentiate into macrophages for 7 days, at which time they were infected.
The intracellular GSH was assayed by means of the assay kit sold by Cayman. This method for assaying glutathione is an adaptation of that described by O. W. Griffith et al. (1980).

HIV-1/Ba-L [1] = assay: Combination of I-152 with AZT in MDMs infected with HIV-1/Ba-L (Chou combination index); format: cell-based; details: I-152 combined with AZT
Experimental: Viral replication was measured by assaying the reverse transcriptase activity in culture supernatants using the RetroSys kit from Innovagen, following the recommendations of the company.
as §1
The pro-GSH compounds of the “I-152 family” are preferably administered as adjuvants therapeutic for current antiretrovirals. The inventors have thus attempted to measure in vitro the effects of I-152 with respect to the anti-HIV effectiveness of these molecules. This study was carried out using macrophages derived from human blood monocytes infected by the HIV-1/Ba-L strain and according to the methodology described by J. and T C. Chou for quantifying the synergistic effects, additive or antagonistic, between two molecules.

HIV provirus = assay: Quantification of proviral DNAs by PCR (integration of the provirus within the cell genome); format: cell-based; details: PCR of proviral DNA
Experimental: I-152 is composed of MEA and NAC, which are capable of interacting with the early phases of the biological cycle of HIV. It is therefore capable of decreasing the integration of the provirus into the cell genome. In order to measure these effects, the proviral DNAs were quantified by PCR. The cells were lysed using 1 ml of the following lysis solution: 10 mM Tris HCl pH 8; 100 mM of EDTA pH 8; 0.5% of sodium dodecyl sulfate (SDS); 20 μg/ml of DNAse-free bovine pancreatic RNAse. 200 μg/ml of proteinase K are subsequently added to this suspension. The DNAs were subsequently extracted using 1 ml of an ice-cold saturated phenol solution and 1 ml of a […] solution.
The viral DNAs were then amplified by means of specific primers of the gag gene (SK01/SK39) and of a standard range of the 8E5 line, a chronically infected line, the cells of which carry a proviral copy. The β-globin gene was used as reporter gene in order to make sure of the quality of the DNA extraction.

[2] = system: total glutathione (GSH+GSSG); assay: Total intracellular glutathione in quiescent PBMCs; format: cell-based, human
HIV-1/Ba-L [3] = assay: Antiviral activity in human spleen macrophages infected with HIV-1/Ba-L; format: cell-based; details: Human immunodeficiency virus 1, BAL, Macrophage, read-out: concentration that decreases HIV replication by 50%
From the text: as §2
Retroviral replication within this cell population, and thus the effectiveness of a molecule such as I-152, is conditioned partly by the level of cell differentiation. It was therefore important to make sure of the antiviral effectiveness of I-152 in monocytes/macrophages with a degree of maturation which can be different from that of MDMs. We have thus evaluated the antiviral activity of I-152 and its ability to regenerate the intracellular level of GSH in spleen macrophages. In this cell populations, the HIV-1/Ba-L strain also replicates at high […]. […] This is because the concentration of 38 μM decreases HIV replication by 50% in this spleen cell population (table III). […] It should be noted that, in the spleen macrophages, as in the macrophages derived from blood monocytes, infection by HIV leads to a deficiency of GSH (MDM; FIG. 16).

## CC(=O)N[C@@H](CS)C(=O)NCCSC(C)=O [I-152, N-(N-acetyl-L-cysteinyl)-S-acetylcysteamine]
TNF-α
  synthesis of TNF-α (in words): inhibits the synthesis of TNF-α
MDMs; 500 μM (10 times the 50% effective dose)
  cytotoxicity (in words): not cytotoxic
MDMs; antiviral doses
  cytotoxicity at antiviral doses (in words): not cytotoxic
GSH
  concentration from which the GSH increase is saturated: ≥ 250 µM
  intracellular level of GSH (in words): increases the intracellular level of GSH
HIV-1/Ba-L [1]
  combination index (CI): less than 1
HIV provirus
  integration of the provirus (in words): inhibits the integration of the provirus
[2]; from concentrations supplementing the culture medium giving equivalent glutathione
  times more active than NAC: 120 times
[2]; quiescent PBMCs, 250 μM
  intracellular glutathione at high concentration (in words): decrease
[2]; quiescent PBMCs, 24 h treatment
  effect on intracellular level of glutathione (in words): increases the intracellular level of glutathione
[2]; quiescent PBMCs, dose 125 μM
  intracellular concentration of total glutathione: 2.64 ± 0.13 µM
HIV-1/Ba-L [3]
  EC50: 38 µM
PBLs
  cytotoxicity (in words): not cytotoxic
